As a reminder, the Vd is the apparent volume that relates the amount in the body to the concentration in plasma or blood.

The values below come from PMC12197275, “Preclinical Pharmacokinetic Evaluation of Mithramycin and Mithramycin SA Tryptophan-Conjugated Analog” (Pharmaceutics, 2025).

Read-outs that look alike come from different tables or passages of the source.

For data set [1] the following is noted: cited from earlier work.
Data set [2] in a line: Plasma PK in male athymic nude mice, IV bolus 2 mg/kg (Study 1). The conditions noted are these: male mouse, 2 mg/kg IV bolus.
Method: Four separate PK studies were conducted using nu/nu mice. For studies using destructive sampling, the animals were anesthetized under isoflurane gas and samples were collected through intracardiac puncture in heparinized syringes. […] Blood samples were collected (n = 3 mice/time point) by cardiac puncture at 5 and 30 min and at 1.5, 3, and 6 h. […] Blood samples (n = 3 mice/time point) were collected by cardiac puncture at 5 min, 30 min, 2 h, and 5 h. […] Three groups (n = 9/group) of nu/nu mice were dosed at 0.3 mg/kg, 1 mg/kg, and 3 mg/kg. The mice at each dose level were randomized into three groups of three mice. The sampling time points for the three doses were as follows: 10 min, 20 min, 30 min, 45 min, 1 h, 1.5 h, 2 h, 2.5 h, and 3 h for the 0.3 mg/kg group; 5 min, 15 min, 30 min, 1 h, 2 h, 3 h, 4 h, 6 h, and 8 h for the 1 mg/kg group; and 5 min, 15 min, 30 min, 1 h, 2 h, 4 h, 6 h, 9 h, and 12 h for the 3 mg/kg group. […] Blood samples (n = 2 mice/time point) were collected by cardiac puncture at 10 min, 30 min, 1 h, 3 h, and 6 h. After collection, blood samples were immediately centrifuged at 4000 g for 2 min, and plasma samples were immediately collected and placed on dry ice, followed by storage at −80 °C until analysis.
Plasma samples above the calibration curve range were diluted, along with quality control (QC) samples, and values were accepted when the interpolated concentrations were within 15% of the nominal values.
A short description of data set [3]: Cassette microdose plasma PK in male Sprague Dawley rats, 28 µg/kg (Study 6).
Method: (§1) All samples were processed and analyzed by LC-MS/MS using a bioanalytical method validated according to the FDA’s Bioanalytical Guidance, essentially as described by Eckenrode et al. with some modifications [15]. […] Plasma samples above the calibration curve range were diluted, along with quality control (QC) samples, and values were accepted when the interpolated concentrations were within 15% of the nominal values. The expected % recovery for both compounds was >90% [15, 16]. Analyte separation and detection were performed on a Sciex Exion HPLC system equipped with a C18 analytical column (Phenomenex Synergi 4 µm Fusion-RP 80A; 50 mm × 2 mm with a guard column) and coupled to a hybrid triple-quadrupole/linear ion trap mass spectrometer (Sciex QTrap 6500+ or 7500+, Framingham, MA, USA). A 0.6 mL/min gradient of 0.005% formic acid in water and 0.005% formic acid in acetonitrile was used to elute the analytes within a 5 min time window. […] The internal standard was the MTM oxime–tryptophan [5]. The instruments were controlled and the data were integrated and processed using Sciex OS software version 3.3.1.43.
(§2) Only concentrations above the limit of quantification were used for NCA. The linear-up log-down trapezoidal integration method was used to estimate the area under the curve from time zero to the last measurable concentration–time point (AUClast). The terminal elimination rate constant (ke) was estimated by log-linear regression using the last three data points of the concentration–time profiles.
In data set [4] the test system is plasma from Cynomolgus monkeys. The experiment in a line: Plasma protein binding by rapid equilibrium dialysis, monkey plasma. Conditions: Cynomolgus macaque plasma.
Method: (§3) Protein binding was assessed in plasma derived from athymic nude (nu/nu) mice, Sprague Dawley rats, Cynomolgus monkeys, and humans. Plasma from athymic nude mice and Sprague Dawley rats was collected from animals housed locally. […] Plasma was collected by centrifuging the whole blood immediately upon collection, stored at 4 °C, and used within one week of storage for protein binding studies. The plasma was spiked with the compound to prepare 1, 3, and 10 µM final concentrations (0.1% DMSO (v/v)). Spiked plasma (100 µL) and PBS (350 µL) were placed in their respective chambers in the Pierce™ RED Device (12K MWCO; Linden Bioscience, Research Triangle Park, NC, USA) and incubated in a Talboys microplate shaker at 37 °C and 250 rpm for 4 h to achieve equilibrium. Post-dialysis samples were collected from the plasma and buffer chambers, matrix-matched with PBS and plasma, respectively, and analyzed by LC-MS/MS as detailed below. The experiments were performed in triplicate, and the unbound percentage was calculated based on the following equation [13]: fu=PBS chamber area ratio/Plasma chamber area ratio;Area ratio=analyte area/ISTD area
(§4) All samples were processed and analyzed by LC-MS/MS using a bioanalytical method validated according to the FDA’s Bioanalytical Guidance, essentially as described by Eckenrode et al. with some modifications [15]. […] Plasma samples above the calibration curve range were diluted, along with quality control (QC) samples, and values were accepted when the interpolated concentrations were within 15% of the nominal values. […] Analyte separation and detection were performed on a Sciex Exion HPLC system equipped with a C18 analytical column (Phenomenex Synergi 4 µm Fusion-RP 80A; 50 mm × 2 mm with a guard column) and coupled to a hybrid triple-quadrupole/linear ion trap mass spectrometer (Sciex QTrap 6500+ or 7500+, Framingham, MA, USA). A 0.6 mL/min gradient of 0.005% formic acid in water and 0.005% formic acid in acetonitrile was used to elute the analytes within a 5 min time window. […] The internal standard was the MTM oxime–tryptophan [5]. […]
Data set [5] is described as follows: Stability of dosing solutions. The conditions noted are these: […]; 5% Solutol HS-15/95% PBS pH 8).
Data set [6] in a line: Cassette microdose plasma PK in male athymic nude mice, 69 µg/kg (Study 5).
Method: as §1, §2
For data set [7], the system named is plasma from Sprague Dawley rats. Put plainly: Plasma protein binding by rapid equilibrium dialysis, rat plasma. (Equilibrium dialysis compares concentrations on both sides of a semipermeable membrane.)
Method: as §3, §4
Data set [8] concerns plasma from athymic nude (nu/nu) mice. The experiment in a line: Plasma protein binding by rapid equilibrium dialysis, mouse plasma. The conditions noted are these: for Fraction Unbound (%): athymic nude mouse plasma.
Method: as §3
(§5) All samples were processed and analyzed by LC-MS/MS using a bioanalytical method validated according to the FDA’s Bioanalytical Guidance, essentially as described by Eckenrode et al. with some modifications [15]. […] Plasma samples above the calibration curve range were diluted, along with quality control (QC) samples, and values were accepted when the interpolated concentrations were within 15% of the nominal values. […] Analyte separation and detection were performed on a Sciex Exion HPLC system equipped with a C18 analytical column (Phenomenex Synergi 4 µm Fusion-RP 80A; 50 mm × 2 mm with a guard column) and coupled to a hybrid triple-quadrupole/linear ion trap mass spectrometer (Sciex QTrap 6500+ or 7500+, Framingham, MA, USA). A 0.6 mL/min gradient of 0.005% formic acid in water and 0.005% formic acid in acetonitrile was used to elute the analytes within a 5 min time window. […] The internal standard was the MTM oxime–tryptophan [5]. The instruments were controlled and the data were integrated and processed using Sciex OS software version 3.3.1.43.
For data set [9] the following is noted: male monkey n=1, high microdose cassette: MTM 13.18 µg/kg, MTMSA-Trp 4.19 µg/kg, IV infusion.
Method: Two separate cassette dosing PK studies were conducted using male cynomolgus monkeys. […] The blood samples were processed and stored as described above.
as §1
For another data set, the system named is human plasma. Put plainly: Plasma protein binding by rapid equilibrium dialysis, human plasma.
Details of data set [10]: method as in doi:10.1158/1535-7163.TARG-23-B150. Conditions: across different multi-day dosing schedules; cited from earlier work.
Data set [11] is described as follows: Plasma PK in male Sprague Dawley rats, IV bolus 0.5 mg/kg (Study 2). The conditions noted are these: male rat, 0.5 mg/kg IV bolus.
Method: Rat PK studies were conducted using male Sprague Dawley rats (Study 2; Table 1). […] Blood samples were collected at three different time points by saphenous bleeding. The collection time points were at 5 min and 20 min and at 1, 3, 6, and 9 h. The blood samples were processed and stored as described above.
as §1, §2
[12] abbreviates: male rat, 28 µg/kg each, cassette IV bolus.
Where [13] appears, read: female athymic nude mice, 0.3 mg/kg IV bolus.
Setting [14] is: female athymic nude mice, 1 mg/kg IV bolus.
The mark [15] stands for this setting: female athymic nude mice, 3 mg/kg IV bolus.
The mark [16] stands for this setting: female athymic nude mice, 5 mg/kg IV bolus.
The mark [17] stands for this setting: female athymic nude mice, 10 mg/kg IV bolus.
Setting [18] is: male mouse, 69 µg/kg each, cassette IV bolus.

Method for human plasma: as §3, §5

Regarding `CO[C@@H]([C@@H]1Cc2cc3cc(O[C@H]4CC(O[C@H]5CC(O)[C@H](O)C(C)O5)[C@H](O)C(C)O4)c(C)c(O)c3c(O)c2C(=O)[C@H]1O[C@H]1CC(O[C@H]2CC(O[C@H]3CC(O)[C@H](O)C(C)O3)[C@@H](O)C(C)O2)[C@H](O)C(C)O1)[C@@H](O)C(C)=O` (some centres unmarked) [EC-8042], in data set [1] (same as MTM), the systemic clearance result is given as “high systemic clearance”.
Consider `CO[C@H](C(=O)C(C)=O)[C@@H]1Cc2cc3cc(OC4C[C@@H](OC5C[C@@H](O)[C@H](O)C(C)O5)[C@H](O)C(C)O4)c(C)c(O)c3c(O)c2C(=O)[C@H]1OC1C[C@@H](OC2C[C@@H](OC3C[C@](C)(O)[C@H](O)C(C)O3)[C@@H](O)C(C)O2)[C@H](O)C(C)O1` (some centres unmarked) [MTM-SDK], for which the systemic clearance result in data set [1] (in vivo) is on record as “high systemic clearance”.
In the case of `CO[C@H](C(O)C(C)=O)[C@@H]1Cc2cc3cc(OC4C[C@@H](OC5C[C@@H](O)[C@H](O)C(C)O5)[C@H](O)C(C)O4)c(C)c(O)c3c(O)c2C(=O)[C@H]1OC1C[C@@H](OC2C[C@@H](OC3C[C@](C)(O)[C@H](O)C(C)O3)[C@@H](O)C(C)O2)[C@H](O)C(C)O1` (some centres unmarked) [MTM-SK], the systemic clearance result in data set [1] (in vivo) is given as “high systemic clearance”.
As for `COC(=O)[C@H](Cc1c[nH]c2ccccc12)NC(=O)[C@H](Cc1ccccc1)NC(=O)CO/N=C(\[C@@H](O)[C@@H](C)O)[C@@H](OC)[C@@H]1Cc2cc3cc(O[C@H]4C[C@@H](O[C@H]5C[C@@H](O)[C@H](O)[C@@H](C)O5)[C@H](O)[C@@H](C)O4)c(C)c(O)c3c(O)c2C(=O)[C@H]1O[C@H]1C[C@@H](O[C@H]2C[C@@H](O[C@H]3C[C@](C)(O)[C@H](O)[C@@H](C)O3)[C@@H](O)[C@@H](C)O2)[C@H](O)[C@@H](C)O1` [MTMox32E], in data set [1] (in vivo), the systemic clearance result is given as “low systemic clearance”.
For the compound mithramycin SA-Trp [MTMSA-Trp], the “AUC0–inf” value in data set [2] is 38,564 ng/mL·h; the “AUC0–inf” value in [3] (setting [12]) came out at 223 ng·h/mL; the “AUC0–inf” value under setting [13] amounted to 4373 ng·h/mL; the “AUC0–inf” value under setting [14] is 24,419 ng/mL·h; the “AUC0–inf” value under setting [15] is listed as 91,778 ng/mL·h; the “AUC0–inf” value under setting [17] is 216,281 ng/mL·h. For the same compound, the entries for the “AUC0–inf” value in data set [6] (setting [18]), in data set [9] and in data set [11] were 569 ng·h/mL, 181 ng·h/mL and 3486 ng·h/mL, respectively. The compound further returned a CL in [2] of 0.867 mL/min/kg; a CL in data set [3] (setting [12]) of 2.1 mL/min/kg; a CL under setting [13] of 1.15 mL/min/kg; a CL under setting [14] of 0.683 mL/min/kg; a CL under setting [15] of 0.55 mL/min/kg; a CL under setting [16] of 0.6 mL/min/kg. The same compound came in with a CL under setting [17] of 0.767 mL/min/kg, a CL in [6] (setting [18]) of 2.02 mL/min/kg, a CL in [9] of 0.383 mL/min/kg and a CL in data set [11] of 2.38 mL/min/kg. For the same compound, the “Extrapolated AUC0–inf” value in data set [2] is reported as 8.07%; the “Extrapolated AUC0–inf” value in [3] (setting [12]) is given as 8.4%; the “Extrapolated AUC0–inf” value under setting [13] is listed as 0.4%; the “Extrapolated AUC0–inf” value under setting [14] is on record as 0.2%; the “Extrapolated AUC0–inf” value under setting [15] was 0.2%; the “Extrapolated AUC0–inf” value under setting [16] was 6.5%. Besides, the “Extrapolated AUC0–inf” value under setting [17] was 5.6%, the “Extrapolated AUC0–inf” value in data set [6] (setting [18]) is reported as 3.2%, the “Extrapolated AUC0–inf” value in data set [9] is 4.99% and the “Extrapolated AUC0–inf” value in [11] is given as 1.43%. In addition, the “Terminal t1/2” value in data set [2] is 1.85 h; in data set [3] (setting [12]) it was 2.4 h; in data set [6] (setting [18]) it was 1.8 h; in data set [9], 0.78 h; in data set [11], 1.56 h. Besides, the distribution volume (Vd) in [2] turned out to be 0.138 L/kg; the Vd in data set [3] (setting [12]) worked out at 0.428 L/kg; the volume of distribution (Vd) under setting [13] came to 0.045 L/kg; the Vd under setting [14] came to 0.075 L/kg; the Vd under setting [15] was 0.123 L/kg; the volume of distribution (Vd) under setting [16] came out at 0.08 L/kg. The distribution volume (Vd) under setting [17] amounted to 0.081 L/kg, the Vd in data set [6] (setting [18]) was 0.318 L/kg, the Vd in data set [9] was found to be 0.026 L/kg and the distribution volume (Vd) in data set [11] is 0.324 L/kg. In addition, the “change of systemic clearance between microgram- and milligram-level doses” value in data set [3] (rats, 28 µg/kg vs 0.5 mg/kg) was “remained similar”; in data set [6] (mice, 69 µg/kg vs 2 mg/kg), “approximately 0.4 fold”. For the same compound, the “Fraction Unbound (%)” value stood at 1.03 ± 0.27% in data set [4] (1 µM); 1.02 ± 0.09% in [4] (3 µM); 1.14 ± 0.15% in data set [4] (10 µM); 2.41 ± 1.29% in [7] (1 µM); 3.85 ± 0.08% in [7] (3 µM); 3.88 ± 0.54% in [7] (10 µM). Further, the “Fraction Unbound (%)” value (in [8] (1 µM); in data set [8] (3 µM); in [8] (10 µM); with human plasma (1 µM); with human plasma (3 µM); in the data set with human plasma (10 µM)) was less than 1% each time. The “stability of dosing solution following formulation” value in [5] was “at least 11 days”. In addition, where the note is “average over 1, 3, 5, and 10 mg/kg, female athymic nude mice”, the “estimated systemic clearance, average” value was “approximately 41 mL/h/kg”. Further, the t1/2 reads like this: under setting [13], 0.5 h; under setting [14], 1.3 h; under setting [15], 2.6 h; under setting [16], 1.5 h; under setting [17], 1.2 h. This compound displayed a linear kinetics range (female athymic nude mice, IV bolus) of 1 to 10 mg/kg. Moreover, the dose proportionality result (mice, 1, 3, and 10 mg/kg doses) is reported as “linear pharmacokinetics”. In addition, the unbound fraction is on record as less than 1% in [8] (nu/nu mouse plasma, across tested concentrations (1, 3, 10 µM)) and less than 1% in the data set with human plasma (across tested concentrations). Moreover, the maximum tolerated doses in [10] is 1 to 3 mg/kg.
